Data as given in patent US11667645B2, “Granzyme B directed imaging and therapy” (CytoSite Biopharma Inc., priority 2018, dated 2023).

biological target: Granzyme B (human lymphocytes) (Homo sapiens (Human), UniProt P10144); assay: human Granzyme B biochemical assay; conditions: Granzyme B (human lymphocytes) 5 nM, substrate Ac-IETD-AFC 200 μM, Cpd incubation with enzyme 30 mins, 22° C., read time 60 mins; read-out: IC50
Summary of the method: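 Fluorogenic Ac-IETD-AFC cleavage (Ex 400/Em 505 nm) read after 60 min at 22 °C, following 30 min, 22 °C enzyme–compound pre-incubation. Working stocks: enzyme 10 nM in 0.1% BSA buffer, substrate 800 µM, compound 8 points, 3.16-fold from 40 µM. Controls set 0% (DMSO) and 100% (standard inhibitor) inhibition; IC50 fitted.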

Sequence of Granzyme B (human lymphocytes) (P10144 21-247): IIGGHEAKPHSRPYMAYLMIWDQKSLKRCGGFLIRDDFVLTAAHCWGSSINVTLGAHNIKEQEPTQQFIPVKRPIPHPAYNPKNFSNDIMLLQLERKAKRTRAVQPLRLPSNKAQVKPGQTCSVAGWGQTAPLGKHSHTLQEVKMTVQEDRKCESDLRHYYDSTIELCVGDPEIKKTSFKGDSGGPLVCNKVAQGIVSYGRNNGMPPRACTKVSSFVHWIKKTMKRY

IC50 [µM] | SMILES
0.001 to 0.3 | CC[C@H](C)[C@H](NC(=O)c1ccccc1)C(=O)N[C@H]1CCc2cccc3c2N(C1=O)[C@H](C(=O)NCc1c[nH]nn1)C3 [Compound C039, (2S,5S)-5-((2S,3S)-2-Benzoylamino-3-methyl-pentanoylamino)-4-oxo-1,2,4,5,6,7-hexahydro-azepino[3,2,1-hi]indole-2-carboxylic acid (1H-[1,2,3]triazol-4-ylmethyl)-amide]
0.301 to 1 | CC(C)[C@H](NC(=O)c1ccc(F)cc1)C(=O)N[C@H]1CCc2cccc3c2N(C1=O)[C@H](C(=O)NCc1c[nH]nn1)C3 [Compound C047, (2S,5S)-5-[(S)-2-(4-Fluoro-benzoylamino)-3-methyl-butyrylamino]-4-oxo-1,2,4,5,6,7-hexahydro-azepino[3,2,1-hi]indole-2-carboxylic acid (1H-[1,2,3]triazol-4-ylmethyl)-amide]
1 to 5 | CC(=O)N[C@H](C(=O)N[C@H]1CCc2cccc3c2N(C1=O)[C@H](C(=O)NCC(=O)O)C3)C(C)C [Compound C085, {[(2S,5S)-5-((S)-2-Acetylamino-3-methyl-butyrylamino)-4-oxo-1,2,4,5,6,7-hexahydro-azepino[3,2,1-hi]indole-2-carbonyl]-amino}-acetic acid]
> 5 | CC[C@H](C)[C@H](NC(=O)COCCF)C(=O)N[C@H]1CCc2cccc3c2N(C1=O)[C@H](C(=O)NCc1ccccn1)C3 [Compound C121, (2S,5S)-5-{(2S,3S)-2-[2-(2-Fluoro-ethoxy)-acetylamino]-3-methyl-pentanoylamino}-4-oxo-1,2,4,5,6,7-hexahydro-azepino[3,2,1-hi]indole-2-carboxylic acid (pyridin-2-ylmethyl)-amide]
1 to 5 | O=C(N[C@@H](Cc1ccccc1)C(=O)N[C@H]1CCc2cccc3c2N(C1=O)[C@H](C(=O)NCc1c[nH]nn1)C3)c1ccccc1 [Compound C037]
> 5 | CC[C@H](C)[C@H](NC(=O)COCCF)C(=O)N[C@H]1CCc2cccc3c2N(C1=O)[C@H](C(=O)NCc1cc[nH]c1)C3 [Compound C107, (2S,5S)-5-{(2S,3S)-2-[2-(2-Fluoro-ethoxy)-acetylamino]-3-methyl-pentanoylamino}-4-oxo-1,2,4,5,6,7-hexahydro-azepino[3,2,1-hi]indole-2-carboxylic acid (1H-pyrrol-3-ylmethyl)-amide]
0.301 to 1 | O=C(N[C@H](C(=O)N[C@H]1CCc2cccc3c2N(C1=O)[C@H](C(=O)NCc1c[nH]nn1)C3)C1CC1)c1ccccc1 [Compound C082, (2S,5S)-5-((S)-2-Benzoylamino-2-cyclopropyl-acetylamino)-4-oxo-1,2,4,5,6,7-hexahydro-azepino[3,2,1-hi]indole-2-carboxylic acid (1H-[1,2,3]triazol-4-ylmethyl)-amide]
1 to 5 | CC(C)C[C@H](NC(=O)Cc1csc2ccccc12)C(=O)N[C@H]1CCc2cccc3c2N(C1=O)[C@H](C(=O)NCc1c[nH]nn1)C3 [Compound C005, (2S,5S)-5-[(S)-2-(2-Benzo[b]thiophen-3-yl-acetylamino)-4-methyl-pentanoylamino]-4-oxo-1,2,4,5,6,7-hexahydro-azepino[3,2,1-hi]indole-2-carboxylic acid (1H-[1,2,3]triazol-4-ylmethyl)-amide]
0.301 to 1 | CC[C@H](C)[C@H](NC(=O)COCCF)C(=O)N[C@H]1CS(=O)(=O)c2cccc3c2N(C1=O)[C@H](C(=O)NCc1c[nH]nn1)C3 [Compound C172, (1S,8R)-8-{(2S,3S)-2-[2-(2-Fluoro-ethoxy)-acetylamino]-3-methyl-pentanoylamino}-6,6,9-trioxo-1,2,6,7,8,9-hexahydro-6lambda*6*- thia-9a-aza-benzo[cd]azulene-1-carboxylic acid (1H-[1,2,3]triazol-4-ylmethyl)-amide]
> 5 | N[C@H]1CCc2cccc3c2N(C1=O)[C@H](C(=O)NCc1c[nH]nn1)C3 [Compound C147, (2S,5S)-5-Amino-4-oxo-1,2,4,5,6,7-hexahydro-azepino[3,2,1-hi]indole-2-carboxylic acid (1H-[1,2,3]triazol-4-ylmethyl)-amide]
> 5 | O=C(CNC(=O)c1ccccc1)N[C@H]1CCc2cccc3c2N(C1=O)[C@H](C(=O)NCc1c[nH]nn1)C3 [Compound C034, (2S,5S)-5-(2-Benzoylamino-acetylamino)-4-oxo-1,2,4,5,6,7-hexahydro-azepino[3,2,1-hi]indole-2-carboxylic acid (1H-[1,2,3]triazol-4-ylmethyl)-amide]
1 to 5 | CC(=O)N[C@@H](Cc1ccc(F)cc1)C(=O)N[C@H]1CCc2cccc3c2N(C1=O)[C@H](C(=O)NCc1c[nH]nn1)C3 [Compound C033, (2S,5S)-5-[(S)-2-Acetylamino-3-(4-fluoro-phenyl)-propionylamino]-4-oxo-1,2,4,5,6,7-hexahydro-azepino[3,2,1-hi]indole-2-carboxylic acid (1H-[1,2,3]triazol-4-ylmethyl)-amide]
0.001 to 0.3 | O=C(Cc1csc2ccccc12)N[C@H](C(=O)N[C@H]1CCc2cccc3c2N(C1=O)[C@H](C(=O)NCc1c[nH]nn1)C3)C1CCCC1 [Compound C075, (2S,5S)-5-[(S)-2-(2-Benzo[b]thiophen-3-yl-acetylamino)-2-cyclopentyl-acetylamino]-4-oxo-1,2,4,5,6,7-hexahydro-azepino[3,2,1-hi]indole-2-carboxylic acid (1H-[1,2,3]triazol-4-ylmethyl)-amide]
> 5 | CC[C@H](C)[C@H](NC(=O)COCCF)C(=O)N[C@H]1CCc2cccc3c2N(C1=O)[C@H](C(=O)NCCc1cnn[nH]1)C3 [Compound C120, (2S,5S)-5-{(2S,3S)-2-[2-(2-Fluoro-ethoxy)-acetylamino]-3-methyl-pentanoylamino}-4-oxo-1,2,4,5,6,7-hexahydro-azepino[3,2,1-hi]indole-2-carboxylic acid [2-(3H-[1,2,3]triazol-4-yl)-ethyl]-amide]
> 5 | CC[C@H](C)[C@H](NC(=O)COCCF)C(=O)N[C@H]1CCc2cccc3c2N(C1=O)[C@H](C(=O)NCc1ccsc1)C3 [Compound C109]
> 5 | CC[C@H](C)[C@H](NC(=O)COCCF)C(=O)N[C@H]1CCc2cccc3c2N(C1=O)[C@H](C(=O)NCc1cccs1)C3 [Compound C106, (2S,5S)-5-{(2S,3S)-2-[2-(2-Fluoro-ethoxy)-acetylamino]-3-methyl-pentanoylamino}-4-oxo-1,2,4,5,6,7-hexahydro-azepino[3,2,1-hi]indole-2-carboxylic acid (thiophen-2-ylmethyl)-amide]
0.001 to 0.3 | CC[C@H](C)[C@H](NC(=O)c1ccncc1)C(=O)N[C@H]1CCc2cccc3c2N(C1=O)[C@H](C(=O)NCc1c[nH]nn1)C3 [Compound C068, (2S,5S)-5-{(2S,3S)-3-Methyl-2-[(pyridine-4-carbonyl)-amino]-pentanoylamino}-4-oxo-1,2,4,5,6,7-hexahydro-azepino[3,2,1-hi]indole-2-carboxylicacid (1H-[1,2,3]triazol-4-ylmethyl)-amide]
0.001 to 0.3 | CC[C@H](C)[C@H](NC(=O)Cc1csc2ccccc12)C(=O)N[C@H]1COc2cccc3c2N(C1=O)[C@H](C(=O)NCc1c[nH]nn1)C3 [Compound C146, (1S,8S)-8-[(2S,3S)-2-(2-Benzo[b]thiophen-3-yl-acetylamino)-3-methyl-pentanoylamino]-9-oxo-1,2,8,9-tetrahydro-7H-6-oxa-9a-aza-benzo[cd]azulene-1-carboxylic acid (1H-[1,2,3]triazol-4-ylmethyl)-amide]
> 5 | O=C(O)CC[C@H](NC(=O)Cc1ccccc1)C(=O)N[C@H]1CCc2cccc3c2N(C1=O)[C@H](C(=O)NCc1c[nH]nn1)C3 [Compound C019, (S)-4-{(2S,5S)-4-Oxo-2-[(1H-[1,2,3]triazol-4-ylmethyl)-carbamoyl]-1,2,4,5,6,7-hexahydro-azepino[3,2,1-hi]indol-5-ylcarbamoyl}-4-phenylacetylamino-butyric acid]

same assay, conditions: Granzyme B IC50 as repeated in Table 7; read-out: IC50

IC50 [µM] | SMILES
0.001 to 0.3 | CC[C@H](C)[C@H](NC(=O)c1ccccc1)C(=O)N[C@H]1CCc2cccc3c2N(C1=O)[C@H](C(=O)NCc1c[nH]nn1)C3 [Compound C039, (2S,5S)-5-((2S,3S)-2-Benzoylamino-3-methyl-pentanoylamino)-4-oxo-1,2,4,5,6,7-hexahydro-azepino[3,2,1-hi]indole-2-carboxylic acid (1H-[1,2,3]triazol-4-ylmethyl)-amide]

system: not listed separately; assay: metabolic stability assay using liver microsomes; format: in vitro ADME; conditions: human liver microsomes, with NRS at 37° C.
Protocol: In addition, compounds of Formula I-VIII described above are also tested in the metabolic stability assay using liver microsomes, as provided below.
Buffer pH7.4: Prepare 1 (M) KH2PO4 and 1 (M) K2HPO4. Titrate 1(M) K2HPO4 with 1 (M) KH2PO4 to obtain pH 7.40. Dilute this buffer 10 fold in Water (30 ml buffer+270 ml of water) to obtain 100 mM phosphate buffer. Adjust pH to 7.40±0.02 using 5(N) HCl or 5(N) NaOH.
NADPH Regeneration System (NRS): Prepare a solution containing 13 mM NADP, 33 mM Glucose-6-phosphate, 33 mM MgCl2 and 4 U/ml Glucose-6-phosphate dehydrogenase in buffer.
Liver Microsome (LM) suspension: Thaw LM vial on ice, then mix 1.0 ml LM (20 mg/ml) with 19 ml buffer [final LM Conc: 1 mg/ml]
LM+NRS suspension: Mix 5.0 ml NRS with 20 ml LM suspension [final LM Conc: 0.8 mg/ml]
System suitability standard: a synthesized compound having Mol wt 686.2 used as System suitability standard. Dissolve this compound in ice-cold acetonitrile to obtain concentration of 0.1 μg/ml and store at 4° C.
Compound Stock: 10 mM in DMSO
Sub stock (100 μM): 4 μl of 10 mM Compound Stock+[…] Acetonitrile
Working plate (2 μM): 10 μl of 100 μM Sub stock+490 μl buffer
Incubate all plastic materials including tips at 37° C. overnight.
Incubate LM suspension and NRS at 37° C. for 15 min before use.
Add 40 μl buffer to the wells of blank plate.
Add 40 μl compound (from working plate) to 0, 5, 10, 20, 30 and 60 min plates.
Initiate reaction by adding 40 μl of LM+NRS suspension in each plate.
Terminate reaction by adding 240 μl ice-cold acetonitrile containing system suitability standard at designated time points. For T=0 add 240 μl ice-cold acetonitrile containing system suitability standard before LM+NRS addition.
Centrifuge (3500 rpm, 20 min and 15° C.) the plates.
Mix 110 μl supernatant with 110 μl water and quantitate amount of Compound in the solution using LC-MS/MS.
For Scaled CLint & Predicted CL use the relevant physiological parameters, as applicable.
Human LM: Corning, Cat #25117
Mouse LM: Xenotech, Cat #M1000
(2) Volumes mentioned in the protocol are representative values and may change depending on number of test compounds.
(3) It is assumed that the compounds are chemically stable in the assay system/buffer.
The metabolic stability assay described above can be performed using different test concentrations, LM Concentrations, or time points.
Certain compounds of this disclosure were tested in the microsomal stability assay provided above.

SMILES | HLM % remaining @ 30 min
CC[C@H](C)[C@H](NC(=O)c1ccccc1)C(=O)N[C@H]1CCc2cccc3c2N(C1=O)[C@H](C(=O)NCc1c[nH]nn1)C3 [Compound C039, (2S,5S)-5-((2S,3S)-2-Benzoylamino-3-methyl-pentanoylamino)-4-oxo-1,2,4,5,6,7-hexahydro-azepino[3,2,1-hi]indole-2-carboxylic acid (1H-[1,2,3]triazol-4-ylmethyl)-amide] | ** (“**” indicates a remaining percentage of 31-70%)
